Experimental data taken from patent US20220054493A1, “INHIBITORS OF NGAL PROTEIN” (INSERM (INSTITUT NATIONAL DE LA SANTÉ ET DE LA RECHERCHE …, priority 2019, published 2022).

Assays:
[1] = system: CaCo2 cell line; test: Bi-CaCo2 permeability assay; assay type: in vitro ADME, human
Procedure: (§1) The Caco-2 Permeability assay uses an established method for predicting the in vivo absorption of drugs across the gut wall. The transport rate across the CaCo2 cell line is measured. This cell line has a human colon carcinoma origin and resembles to the intestinal epithelia (a polarised monolayer with microvilli and intercellular tight junctions).
(§2) Bidirectional transport (apical to basolateral (A-B) and basolateral to apical (B-A)) across the cell monolayer were determined allowing to calculate the efflux ratio (an indicator as to whether a compound undergoes active efflux).

[2] = Bi-CaCo2 permeability assay; assay type: in vitro ADME, human; settings: human, Caco-2; efflux ratio
Procedure: as §1, §2

[3] = system: human microsomes; test: Stability in human microsomes; assay type: in vitro ADME
Procedure: (§3) Two specific toxicity assays have been performed to assess hepatoxicity and cardiotoxicity. Hepatotoxicity was evaluated in isolated hepatocytes from swiss mice and determined by the MTT colorimetric assay. Cardiotoxicity was evaluated using the commercially available Predictor hERG fluorescence polarization kit (Thermo Fisher Scientific). Several ADME assays have been carried out on the compounds generated throughout the project. The following experiments were undertaken: Stability in human microsomes, binding to human plasma protein, and CYP3A4 inhibition assay (Vivid CYP3A4 assay, Thermo Fisher Scientific). Physico-chemical properties were also assessed such as aqueous solubility and chemical stability.

[4] = Aqueous solubility; assay type: physicochemical
Procedure: as §3

[5] = molecular target: T1, CYP3A4 (Homo sapiens, UniProt P08684); test: CYP3A4 inhibition assay (Vivid CYP3A4 assay); assay type: in vitro ADME
T1 construct: purchased Thermo Fisher Scientific
Procedure: as §3

[6] = system: isolated hepatocytes from swiss mice; test: Hepatotoxicity, MTT colorimetric assay; assay type: cell-based
Procedure: as §3

[7] = molecular target: T2, hERG channel (Homo sapiens, UniProt Q12809); test: Cardiotoxicity, Predictor hERG fluorescence polarization kit; assay type: binding
T2 construct: purchased Thermo Fisher Scientific
Procedure: as §3

[8] = Chemical stability; assay type: physicochemical
Procedure: as §3

[9] = molecular target: T3, NGAL (Homo sapiens, UniProt P80188); test: NGAL-induced profibrotic marker synthesis in human cardiac fibroblasts (western blot); assay type: cell-based; settings: FIGS. 1 and 2 panel C
T3 construct: purchased R&D Systems
Procedure: (§4) Cell Culture Human cardiac fibroblasts (primary culture) were obtained from Promocell and maintained in medium (Fibroblast Media 3). Cells were cultured according to the manufacturer's instructions and used between passages 5 and 7. Cells were stimulated with aldosterone (10^-8 M, Sigma) or recombinant hNGAL (500 ng/mL, R&D Systems) for 24 h for protein analysis. Mouse kidney fibroblasts (MKF), were isolated from Wild Type (WT) mice. Briefly, mice 7 to 8 weeks were sacrificed by cervical dislocation and kidneys were cleaned and rinsed in cold DPBS (Dulbecco's Phosphate-Buffered Saline). The renal cortex was minced and incubated in Dulbecco's modified eagle medium/Nutrient mixture F-12 (DMEM/F12, Sigma) containing 1 mg/mL collagenase A (Roche) during 25 minutes at 37° C. […]
(§5) Total protein aliquots of 20 μg were prepared from cardiac homogenates and electrophoresed on SDS polyacrylamide gels and transferred to Hybond-c Extra nitrocellulose membranes (Amersham Biosciences). […] After densitometric analyses, optical density values were expressed as arbitrary units. Results are expressed as an n-fold increase over the values of the control group in densitometric arbitrary units.
(§6) The inhibitory activity of the compounds was evaluated on the NGAL-induced IL6 secretion (NGAL 10 ng/ml) in human cardiac fibroblasts. […]

[10] = molecular target: T3, NGAL; test: NGAL-induced Col 1 secretion in human cardiac fibroblasts (ELISA); assay type: cell-based; settings: FIGS. 1 and 2 panel B
Procedure: as §4, with “C. The digestion was inactivated by adding culture medium (DMEM/F12+10% FBS) then the cell suspension was passed through a 100-μm cell strainer. After centrifugation, the pellet (containing MKF) was diluted with culture medium then plated in 75 cm^2 culture flask.” for “C.”
(§7) NGAL, IL6 and collagen type I concentrations were measured in cardiac tissue and cell supernatants, respectively, by ELISA according to the manufacturer's instructions (R&D Systems).
as §6

[11] = system: aldosterone-induced profibrotic marker synthesis; test: Aldosterone-induced profibrotic marker synthesis in human cardiac fibroblasts; assay type: cell-based; settings: FIGS. 1 and 2 panel D
Procedure: Cell Culture Human cardiac fibroblasts (primary culture) were obtained from Promocell and maintained in medium (Fibroblast Media 3). Cells were cultured according to the manufacturer's instructions and used between passages 5 and 7. Cells were stimulated with aldosterone (10^-8 M, Sigma) or recombinant hNGAL (500 ng/mL, R&D Systems) for 24 h for protein analysis. Mouse kidney fibroblasts (MKF), were isolated from Wild Type (WT) mice. Briefly, mice 7 to 8 weeks were sacrificed by cervical dislocation and kidneys were cleaned and rinsed in cold DPBS (Dulbecco's Phosphate-Buffered Saline). […]
as §5, §7, §6

[12] = system: human plasma protein; test: Binding to human plasma protein; assay type: in vitro ADME
Procedure: as §3

[13] = Binding to human plasma protein; assay type: in vitro ADME; settings: human, human plasma protein; read-out: hPPB (converted)
Procedure: as §3

[14] = molecular target: T3, NGAL; test: NGAL-induced IL6 secretion in human cardiac fibroblasts (ELISA); assay type: cell-based; settings: for Activity: NGAL-induced IL6 secretion (NGAL 10 ng/ml), Control = 1.00 ± 0.03
Procedure: (§8) Cell Culture Human cardiac fibroblasts (primary culture) were obtained from Promocell and maintained in medium (Fibroblast Media 3). Cells were cultured according to the manufacturer's instructions and used between passages 5 and 7. Cells were stimulated with aldosterone (10^-8 M, Sigma) or recombinant hNGAL (500 ng/mL, R&D Systems) for 24 h for protein analysis. Mouse kidney fibroblasts (MKF), were isolated from Wild Type (WT) mice. Briefly, mice 7 to 8 weeks were sacrificed by cervical dislocation and kidneys were cleaned and rinsed in cold DPBS (Dulbecco's Phosphate-Buffered Saline). The renal cortex was minced and incubated in Dulbecco's modified eagle medium/Nutrient mixture F-12 (DMEM/F12, Sigma) containing 1 mg/mL collagenase A (Roche) during 25 minutes at 37° C. The digestion was inactivated by adding culture medium (DMEM/F12+10% FBS) then the cell suspension was passed through a 100-μm cell strainer. After centrifugation, the pellet (containing MKF) was diluted with culture medium then plated in 75 cm^2 culture flask. After 24 hours MKF were washed with DPBS before replacement of fresh culture medium. Thereafter, culture medium was changed every 48 hours. Once 70-80% confluent, MKF were trypsinized and plated in 12 or 6-well plates. For experimental use, MKF were starved with culture medium containing only 3% FBS. MKF were treated with mNGAL (500 ng/mL, R&D Systems) for 24 h for gene expression analysis.
as §7
The inhibitory activity of the compounds was evaluated on the NGAL-induced IL6 secretion (NGAL 10 ng/ml) in human cardiac fibroblasts.
Inhibitory activities of 23 second generation compounds derived from GPZ614741 and GPZ058225 were evaluated on the NGAL-induced IL6 secretion (NGAL 10 ng/ml) in human cardiac fibroblasts.

[15] = molecular target: T3, NGAL; test: NGAL-induced proliferation of human cardiac fibroblast cells (MTT); assay type: cell-based; settings: NGAL 10 ng/ml; FIG. 3
Procedure: as §8
Cell proliferation was assessed using the MTT Proliferation Assay (Sigma).
Results are shown on FIG. 3.

T3 sequence (P80188 21-198): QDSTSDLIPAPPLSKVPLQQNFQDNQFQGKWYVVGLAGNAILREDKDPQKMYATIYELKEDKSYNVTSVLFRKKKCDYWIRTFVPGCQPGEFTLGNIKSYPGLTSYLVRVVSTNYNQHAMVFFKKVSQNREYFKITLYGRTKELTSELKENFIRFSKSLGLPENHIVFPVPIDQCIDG
T1 sequence (P08684 whole entry): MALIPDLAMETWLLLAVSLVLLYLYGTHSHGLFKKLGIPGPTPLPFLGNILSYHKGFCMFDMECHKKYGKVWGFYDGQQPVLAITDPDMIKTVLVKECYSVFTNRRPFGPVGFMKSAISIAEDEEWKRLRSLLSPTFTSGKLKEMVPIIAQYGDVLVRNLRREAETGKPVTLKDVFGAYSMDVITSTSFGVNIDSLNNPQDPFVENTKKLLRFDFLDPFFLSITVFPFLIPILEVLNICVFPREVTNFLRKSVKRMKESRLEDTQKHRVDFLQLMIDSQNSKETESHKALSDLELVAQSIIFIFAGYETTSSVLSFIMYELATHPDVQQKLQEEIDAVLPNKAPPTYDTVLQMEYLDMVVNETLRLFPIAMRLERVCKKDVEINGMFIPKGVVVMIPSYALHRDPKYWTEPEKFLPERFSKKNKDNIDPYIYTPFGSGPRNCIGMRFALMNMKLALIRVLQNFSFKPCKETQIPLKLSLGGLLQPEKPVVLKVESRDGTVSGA
T2 sequence (Q12809 whole entry): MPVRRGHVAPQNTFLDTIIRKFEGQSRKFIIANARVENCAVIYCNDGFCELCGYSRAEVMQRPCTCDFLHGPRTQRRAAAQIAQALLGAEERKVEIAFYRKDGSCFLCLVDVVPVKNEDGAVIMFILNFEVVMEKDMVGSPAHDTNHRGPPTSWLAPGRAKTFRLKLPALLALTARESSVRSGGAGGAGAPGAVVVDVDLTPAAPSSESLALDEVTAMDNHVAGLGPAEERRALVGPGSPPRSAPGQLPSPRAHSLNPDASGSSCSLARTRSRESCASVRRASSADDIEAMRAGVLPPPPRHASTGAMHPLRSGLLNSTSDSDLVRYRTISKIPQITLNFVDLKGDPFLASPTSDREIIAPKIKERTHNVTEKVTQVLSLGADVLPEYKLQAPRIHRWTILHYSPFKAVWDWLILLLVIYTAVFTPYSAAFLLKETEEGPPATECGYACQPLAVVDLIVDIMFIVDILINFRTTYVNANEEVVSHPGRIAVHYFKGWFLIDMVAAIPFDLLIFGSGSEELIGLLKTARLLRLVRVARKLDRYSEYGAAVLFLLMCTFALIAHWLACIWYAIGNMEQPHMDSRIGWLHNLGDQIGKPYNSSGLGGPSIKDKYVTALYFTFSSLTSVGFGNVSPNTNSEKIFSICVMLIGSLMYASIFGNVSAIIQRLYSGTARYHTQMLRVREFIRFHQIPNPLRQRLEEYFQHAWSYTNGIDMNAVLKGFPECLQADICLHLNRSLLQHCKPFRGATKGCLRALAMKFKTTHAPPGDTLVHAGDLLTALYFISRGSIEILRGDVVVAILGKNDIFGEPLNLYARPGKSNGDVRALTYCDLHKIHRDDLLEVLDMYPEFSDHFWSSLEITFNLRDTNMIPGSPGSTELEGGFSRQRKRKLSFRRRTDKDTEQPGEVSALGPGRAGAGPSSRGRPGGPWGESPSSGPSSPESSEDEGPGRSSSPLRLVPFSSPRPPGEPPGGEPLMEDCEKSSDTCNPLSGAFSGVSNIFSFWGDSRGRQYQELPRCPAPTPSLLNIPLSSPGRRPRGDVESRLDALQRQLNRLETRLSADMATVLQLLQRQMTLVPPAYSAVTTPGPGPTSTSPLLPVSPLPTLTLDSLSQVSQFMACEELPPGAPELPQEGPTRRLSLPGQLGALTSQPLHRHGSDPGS

CC(C)NC[C@H](O)COc1cccc2ccccc12 (racemic) [propanolol, reference compound]
Ratio ([1]; efflux ratio): 1.56

CCS(=O)(=O)c1ccc2oc(SCc3cn4c(C)cc(C)nc4n3)nc2c1 [GPZ058225]
efflux ratio [2]: 2.11
permeability through the intestinal epithelia (in words) ([1]; compared with reference compound propranolol): quite high
microsomes degradation, left after 2 h ([3]; after 2 h): very stable
Micro Stability ([3]; human microsomes): 100%
Aquous solubility [4]: 63.46%
solubility in aqueous buffers (solubility test) [4]: 63%
inhibited the enzyme activity (CYP3A4) in a competition assay [5]: 32%
Activity ([5]; human, recombinant CYP3A4 (Vivid CYP3A4 assay kit), 100 = no inhibition, read-out: CyP 3A4 Inhibition % (100 = no inhibition)): 68.1 ± 1.52%
hepatotoxicity (toxicity for hepatocytes) ([6]; MTT up to 0.1 mM): > 0.1 mM
Hepatotoxicity ([6]; cell wrapped over two lines: No tox up / 100 uM): No tox up
cardiotoxicity (hERG predictor assay) [7]: did not block hERG channel
Cardiotoxicity % (100 = no toxicity) ([7]; 100 = no toxicity): 101.73 ± 4.1%
Chemical Stability [8]: 92.2%
stability to acidic pH / digestive content [8]: very stable
NGAL-induced profibrotic marker (col1, col III, fibronectin, Gal3, OPN) synthesis [9]: inhibited
Col 1 secretion (NGAL-induced) [10]: inhibited
aldosterone-induced profibrotic marker (Col1, CT-1, or IL6) synthesis [11]: inhibited
PPB (binding to plasma proteins) [12]: within acceptance range
fraction unbound [13]: 0.109
NGAL-induced IL6 secretion ([14]; NGAL 10 ng/ml, FIGS. 1 and 2 panel A): inhibited

O=C(Nc1nc2cc(F)c(F)cc2s1)c1cn2cccnc2n1 [GPZ278618]
Activity [14]: 0.86 ± 0.02

CC(=O)c1ccc(S(=O)(=O)Nc2ccccc2-n2cccn2)cc1 [GPZ478519]
Activity [14]: 0.69 ± 0.02

CC(=O)c1cccc(S(=O)(=O)NCc2ccccc2Cn2cccn2)c1 [GPZ505884]
Activity [14]: 0.83 ± 0.02

Clc1c(SCc2nc3ccccc3s2)nc2ncccn12 [GPZ564849]
Activity [14]: 0.85 ± 0.05

O=S(=O)(NCc1ccccc1-n1cccn1)c1ccccc1 [GPZ595600]
Activity [14]: 0.92 ± 0.04

Nc1ccc(S(=O)(=O)Nc2ccnn2-c2ccccc2)cc1 [GPZ624624, Sulfaphenazole]
NGAL-induced proliferation of human cardiac fibroblast cells [15]: Inhibitory effects

CC(=O)c1cccc(S(=O)(=O)NCc2ccccc2-c2ccc(CN(C)C)cc2)c1 [GPZ642292]
Activity [14]: 0.64 ± 0.02

CCN(CC)CCn1c(-c2ccccc2)noc1=N [GPZ646083, Imolamine]
NGAL-induced proliferation of human cardiac fibroblast cells [15]: Inhibitory effects

CC(=O)c1ccc(S(=O)(=O)NC(=O)NC2CCCCC2)cc1 [GPZ706277, Acetohexamide]
NGAL-induced proliferation of human cardiac fibroblast cells [15]: Inhibitory effects

Cc1cc(C)n2cc(CSc3nc4ccccc4[nH]3)nc2n1 [GPZ743042]
Activity [14]: 0.94 ± 0.03

N#Cc1cccc(S(=O)(=O)NCc2cccc(-n3cccn3)c2)c1 [GPZ778195]
Activity [14]: 0.88 ± 0.04

CC(=O)c1cccc(S(=O)(=O)NCc2ccccc2-c2ccsc2)c1 [GPZ863205]
Activity [14]: 0.93 ± 0.03

CCN1CCN(Cc2ccccc2CNS(=O)(=O)c2cccc(C(C)=O)c2)CC1 [GPZ913629]
Activity [14]: 0.93 ± 0.02
